This is an account of results in patent publication US11015200B2, “Antisense-induced exon exclusion in myostatin” (Sarepta Therapeutics, Inc., priority 2015, dated 2021).

For data set [1], the system named is exon 2 of the human myostatin gene (huMSTN). Nature of the data set: Exon 2 skipping by RT-PCR in nucleofected primary human myoblasts. The class given is cell-based. The following applies: primary human myoblasts nucleofected with PMO at 10, 3, 1, 0.3 μM, overnight, concentration inducing 50% exon skipping. The method, then:
(§1) In vitro experiments were performed to investigate the ability of antisense oligonucleotides designed and prepared as described above to decrease the expression of exon 2 containing myostatin pre-mRNA. Both human rhabdomyosarcoma cells (RD cells; ATCC CCL-136) and primary human myoblasts were used in the experiments as noted. RD cells or primary human skeletal myoblasts were nucleofected with PMOs at 10, 3, 1 and 0.3 μM in SG or P3 nucleofector solution, respectively, and incubated overnight at 37° C. with 5% CO2. Total RNA was isolated from the cells and RT-PCR was performed using primers Myostatin EX1 Fwd (5′ […] SEQ ID NO: 48) and Myostatin EX3 Rev (5′ […] SEQ ID NO: 49). Amplified samples were analyzed using the LabChip Caliper to determine percent exon 2 skipping. EC50 values were determined using non-linear regression analysis in GraphPad Prism. EC50 values represent the concentration at which the test PMO induces 50% exon skipping.

Data set [2] has the same test system. Nature of the data set: Exon 2 skipping by RT-PCR in nucleofected human rhabdomyosarcoma (RD) cells. The data set is classed as cell-based. The following applies: for EC50: RD cells nucleofected with PMO at 10, 3, 1, 0.3 μM, overnight, concentration inducing 50% exon skipping; for exon skipping, in words: third series, FIG. 5, RD cells, based on the calculated EC50 values. On the procedure:
as §1

The mark [3] stands for this setting: second series (FIG. 4), * = ambiguous fit on non-linear regression.

{TEG} = triethylene glycol spacer

As a reminder, the EC50 is the midpoint of the concentration-response curve.

As for “muhuMSTN-SD2(+04 − 16): PMO, 5′ TEG, 3′ H; targeting sequence TTCAGTTATCACTTACCAGC (all phosphorodiamidate morpholino (PMO), 5' {TEG})”, it took 3910 nM to reach a half-maximal effect in data set [1] (fourth series (FIG. 6)) (EC50).
For “muhuMSTN-SD2(+04 − 21): PMO, 5′ TEG, 3′ H; targeting sequence TTATTTTCAGTTATCACTTACCAGC (all phosphorodiamidate morpholino (PMO), 5' {TEG})”, the EC50 came out at 0.92 nM in data set [2] (setting [3]) and 1050 nM in data set [1] (first series (FIG. 3)).
As for “muhuMSTN-SD2(+02 − 22): PMO, 5′ TEG, 3′ H; targeting sequence GTTATTTTCAGTTATCACTTACCA (all phosphorodiamidate morpholino (PMO), 5' {TEG})”, a half-maximal response in data set [1] (fourth series (FIG. 6)) (EC50) required 687 nM.
For the substance “huMSTN-SA2(−03 + 22): PMO, 5′ TEG, 3′ H; targeting sequence TCCACTTGCATTAGAAAATCAGCTA (all phosphorodiamidate morpholino (PMO), 5' {TEG})”, the EC50 in data set [2] (third series (FIG. 5)) is 11900 nM. That is a double-digit micromolar value.
In data set [1] (fourth series (FIG. 6)), “muhuMSTN-SD2(+01 − 24): PMO, 5′ TEG, 3′ H; targeting sequence ATGTTATTTTCAGTTATCACTTACC (all phosphorodiamidate morpholino (PMO), 5' {TEG})” came in with a concentration for a half-maximal effect (EC50) of 642 nM.
As to “muhuMSTN-SD2(+09 − 14): PMO, 5′ TEG, 3′ H; targeting sequence CAGTTATCACTTACCAGCCCATC (all phosphorodiamidate morpholino (PMO), 5' {TEG})”, the EC50 in data set [1] (fourth series (FIG. 6)) is 1250 nM.
Consider “huMSTN-SA2(−01 + 24): PMO, 5′ TEG, 3′ H; targeting sequence CATCCACTTGCATTAGAAAATCAGC (all phosphorodiamidate morpholino (PMO), 5' {TEG})”, for which the EC50 in data set [2] (third series (FIG. 5)) worked out at 551 nM. In addition, the “exon skipping, in words” value in data set [2] is “most effective”.
The substance “muhuMSTN-SD2(+09 − 16): PMO, 5′ TEG, 3′ H; targeting sequence TTCAGTTATCACTTACCAGCCCATC (all phosphorodiamidate morpholino (PMO), 5' {TEG})” showed an EC50 in data set [1] (fourth series (FIG. 6)) of 549 nM.
Still for that read-out and setting: the result for “muhuMSTN-SD2(+09 − 15): PMO, 5′ TEG, 3′ H; targeting sequence TCAGTTATCACTTACCAGCCCATC (all phosphorodiamidate morpholino (PMO), 5' {TEG})” reads 771 nM.
With “huMSTN-SA2(−07 + 18): PMO, 5′ TEG, 3′ H; targeting sequence CTTGCATTAGAAAATCAGCTATAAA (all phosphorodiamidate morpholino (PMO), 5' {TEG})”, the EC50 in data set [2] (third series (FIG. 5)) is 881 nM.
On to “muhuMSTN-SD2(+02 − 18): PMO, 5′ TEG, 3′ H; targeting sequence TTTTCAGTTATCACTTACCA (all phosphorodiamidate morpholino (PMO), 5' {TEG})”, for which it took 6210 nM to reach a half-maximal effect in data set [1] (fourth series (FIG. 6)) (EC50).
Substance “muhuMSTN-SD2(+01 − 23): PMO, 5′ TEG, 3′ H; targeting sequence TGTTATTTTCAGTTATCACTTACC (all phosphorodiamidate morpholino (PMO), 5' {TEG})” registered an EC50 in data set [1] (fourth series (FIG. 6)) of 648 nM. Compared with the last substance, the EC50 is about 9.6-fold lower.
Take “muhuD30-SD2(+30 + 1): sequence known in the prior art (US 2013/0085139), 5′ TEG, 3′ H; CAGCCCATCTTCTCCTGGTCCTGGGAAGGT (all phosphorodiamidate morpholino (PMO), 5' {TEG}) [reference compound]”: the EC50 in data set [2] (setting [3]) is 522 nM; in data set [1] (first series (FIG. 3)) it was 2700 nM.
The substance “muhuMSTN-SD2(+02 − 23): PMO, 5′ TEG, 3′ H; targeting sequence TGTTATTTTCAGTTATCACTTACCA (all phosphorodiamidate morpholino (PMO), 5' {TEG})” registered an EC50 in data set [1] (fourth series (FIG. 6)) of 277 nM. In other words, the sub-micromolar range.
Still for that read-out and setting: next, “muhuMSTN-SD2(+08 − 16): PMO, 5′ TEG, 3′ H; targeting sequence TTCAGTTATCACTTACCAGCCCAT (all phosphorodiamidate morpholino (PMO), 5' {TEG})”: 622 nM.
“muhuMSTN-SD2(+22 − 03): PMO, 5′ TEG, 3′ H; targeting sequence TACCAGCCCATCTTCTCCTGGTCCT (splice-switching; all phosphorodiamidate morpholino (PMO), 5' {TEG})” registered an EC50 in data set [2] (setting [3]) of 1410 nM.
As to “huMSTN-SA2(−05 + 20): PMO, 5′ TEG, 3′ H; targeting sequence CACTTGCATTAGAAAATCAGCTATA (all phosphorodiamidate morpholino (PMO), 5' {TEG})”, the EC50 in data set [2] (third series (FIG. 5)) came out at 214 nM; in data set [1] (first series (FIG. 3)) it was 3860 nM. The “exon skipping, in words” value in data set [2] is “most effective”.
As to “muhuMSTN-SD2(+05 − 16): PMO, 5′ TEG, 3′ H; targeting sequence TTCAGTTATCACTTACCAGCC (all phosphorodiamidate morpholino (PMO), 5' {TEG})”, in data set [1] (fourth series (FIG. 6)), a half-maximal effect (EC50) was put at 1330 nM.
As for “huMSTN-SA2(02 + 23): PMO, 5′ TEG, 3′ H; targeting sequence ATCCACTTGCATTAGAAAATCAGCT (all phosphorodiamidate morpholino (PMO), 5' {TEG})”, a half-maximal response in data set [2] (third series (FIG. 5)) (EC50) required 1020 nM.
“huMSTN-SA2(−01 + 25): PMO, 5′ TEG, 3′ H; targeting sequence CCATCCACTTGCATTAGAAAATCAGC (all phosphorodiamidate morpholino (PMO), 5' {TEG})” came in with an EC50 in data set [1] (first series (FIG. 3)) of 2160 nM. This counts as single-digit micromolar.
With “muhuMSTN-SD2(+06 − 16): PMO, 5′ TEG, 3′ H; targeting sequence TTCAGTTATCACTTACCAGCCC (all phosphorodiamidate morpholino (PMO), 5' {TEG})”, a half-maximal effect in data set [1] (fourth series (FIG. 6)) (EC50) was put at 829 nM. This counts as sub-micromolar.
Take “muhuMSTN-SD2(+10 − 15): PMO, 5′ TEG, 3′ H; targeting sequence TCAGTTATCACTTACCAGCCCATCT (all phosphorodiamidate morpholino (PMO), 5' {TEG})”: the EC50 in data set [2] (setting [3]) stood at 0.02 nM; in data set [2] (third series (FIG. 5)) it was 115 nM; in data set [1] (first series (FIG. 3)), 1070 nM. The “exon skipping, in words” value in data set [2] is “most effective”.
Substance “muhuMSTN-SD2(+24 − 01): PMO, 5′ TEG, 3′ H; targeting sequence CCAGCCCATCTTCTCCTGGTCCTGG (splice-switching; all phosphorodiamidate morpholino (PMO), 5' {TEG})” came in with an EC50 in data set [2] (setting [3]) of 1410 nM.
On the same count and under the same terms, next, “muhuMSTN-SD2(+13 − 12): PMO, 5′ TEG, 3′ H; targeting sequence GTTATCACTTACCAGCCCATCTTCT (all phosphorodiamidate morpholino (PMO), 5' {TEG})”: 970 nM.
Take “muhuMSTN-SD2(+02 − 19): PMO, 5′ TEG, 3′ H; targeting sequence ATTTTCAGTTATCACTTACCA (all phosphorodiamidate morpholino (PMO), 5' {TEG})”: it took 3580 nM to reach a half-maximal effect in data set [1] (fourth series (FIG. 6)) (EC50).
Still for that read-out and setting: next, “muhuMSTN-SD2(+09 − 13): PMO, 5′ TEG, 3′ H; targeting sequence AGTTATCACTTACCAGCCCATC (all phosphorodiamidate morpholino (PMO), 5' {TEG})”: 2400 nM.
In the case of “muhuMSTN-SD2(+09 − 11): PMO, 5′ TEG, 3′ H; targeting sequence TTATCACTTACCAGCCCATC (all phosphorodiamidate morpholino (PMO), 5' {TEG})”, the EC50 in data set [1] (fourth series (FIG. 6)) is > 10000 nM.
As for “muhuMSTN-SD2(+02 − 20): PMO, 5′ TEG, 3′ H; targeting sequence TATTTTCAGTTATCACTTACCA (all phosphorodiamidate morpholino (PMO), 5' {TEG})”, in data set [1] (fourth series (FIG. 6)), a half-maximal response (EC50) required 4060 nM.
Consider “huMSTN-SA2(−04 + 21): PMO, 5′ TEG, 3′ H; targeting sequence CCACTTGCATTAGAAAATCAGCTAT (all phosphorodiamidate morpholino (PMO), 5' {TEG})”, for which, in data set [2] (third series (FIG. 5)), it took 365 nM to reach a half-maximal effect (EC50). For the same substance, the “exon skipping, in words” value in data set [2] is “most effective”.
In data set [2] (setting [3]), “muhuMSTN-SD2(+19 − 06): PMO, 5′ TEG, 3′ H; targeting sequence ACTTACCAGCCCATCTTCTCCTGGT (splice-switching; all phosphorodiamidate morpholino (PMO), 5' {TEG})” displayed an EC50 of 1330 nM.
The substance “muhuMSTN-SD2(+09 − 12): PMO, 5′ TEG, 3′ H; targeting sequence GTTATCACTTACCAGCCCATC (all phosphorodiamidate morpholino (PMO), 5' {TEG})” displayed an EC50 in data set [1] (fourth series (FIG. 6)) of 4350 nM.
As for “muhuMSTN-SD2(+07 − 18): PMO, 5′ TEG, 3′ H; targeting sequence TTTTCAGTTATCACTTACCAGCCCA (all phosphorodiamidate morpholino (PMO), 5' {TEG})”, the EC50 in data set [2] (setting [3]) turned out to be 0.06 nM; in data set [1] (first series (FIG. 3)), 662 nM.
For the substance “muhuMSTN-SD2(+07 − 16): PMO, 5′ TEG, 3′ H; targeting sequence TTCAGTTATCACTTACCAGCCCA (all phosphorodiamidate morpholino (PMO), 5' {TEG})”, in data set [1] (fourth series (FIG. 6)), the EC50 amounted to 612 nM. In other words, the sub-micromolar range.
On the same count and under the same terms, the result for “muhuMSTN-SD2(+02 − 21): PMO, 5′ TEG, 3′ H; targeting sequence TTATTTTCAGTTATCACTTACCA (all phosphorodiamidate morpholino (PMO), 5' {TEG})” reads 3990 nM.
